According to patent publication US9433607B2, “Composition for prevention or treatment of cancer comprising N-methylenenaphtho[2,1-b]furan-2-carbohydrazide derivatives as an active ingredient” (KOREA RESEARCH INSTITUTE OF BIOSCIENCE AND BIOTECHNOLOGY, priority 2012, dated 2016):

Key:
Hep3B = assay: Anti-proliferative MTT assay, Hep3B; assay type: cell-based; conditions: Homo sapiens, 96 h, Liver, 4 days
Protocol: (§1) Various cancer cell lines (rectal cancer, prostate cancer, breast cancer, lung cancer, stomach cancer, liver cancer, leukemia, brain cancer, and glioma cell lines) were cultured in microtiter plate (1-3×10^3 cells/well), to which ethyl(2-methyl-3{(E)-[(naphtho[2,1-b]furan-2-ylcarbonyl)hydrazono]methyl}-1H-indole-1-yl)acetate was treated. The culture continued for 4 days. Cytotoxicity was investigated by MTT assay by the same manner as described in Example <1-2>. IC50 was calculated by long-dose response curve. The data presents the mean value obtained from the assay performed in triplicate.

HepG2 = assay: Anti-proliferative MTT assay, HepG2; assay type: cell-based; conditions: Homo sapiens, 96 h, HepG2, Liver, 4 days
Protocol: as §1

HCT116 = assay: Anti-proliferative MTT assay, HCT116; assay type: cell-based; conditions: Homo sapiens, HCT-116, 96 h, HCT116, Large intestine, 4 days
Protocol: as §1

HT-29 = assay: Anti-proliferative MTT assay, HT-29; assay type: cell-based; conditions: Homo sapiens, 96 h, HT-29, Large intestine, 4 days
Protocol: as §1

PC-3 = assay: Anti-proliferative MTT assay, PC-3; assay type: cell-based; conditions: Homo sapiens, 96 h, PC-3, Prostate, 4 days
Protocol: as §1

NCl-H460 = assay: Anti-proliferative MTT assay, NCl-H460; assay type: cell-based; conditions: 96 h, NCl-H460, Lung, 4 days
Protocol: as §1

MDA-MB-231 = assay: Anti-proliferative MTT assay, MDA-MB-231; assay type: cell-based; conditions: Homo sapiens, 96 h, MDA-MB-231, Breast, 4 days
Protocol: as §1

SNU-601 = assay: Anti-proliferative MTT assay, SNU-601; assay type: cell-based; conditions: 96 h, SNU-601, Stomach, 4 days
Protocol: as §1

HL60 = assay: Anti-proliferative MTT assay, HL60; assay type: cell-based; conditions: Homo sapiens, HL-60, 96 h, HL60, Blood, 4 days
Protocol: as §1

A-172 = assay: Anti-proliferative MTT assay, A-172; assay type: cell-based; conditions: Homo sapiens, 96 h, A-172, Brain, 4 days
Protocol: as §1

SNB-75 = assay: Anti-proliferative MTT assay, SNB-75; assay type: cell-based; conditions: Homo sapiens, 96 h, SNB-75, Brain, 4 days
Protocol: as §1

K562 = assay: Cytotoxicity MTT assay, K562; assay type: cell-based; conditions: Homo sapiens, 96 h, 4 days
Protocol: (§2) Particularly, K562, MCF7 (Bio-Evaluation Center, Korea Research Institute of Bioscience and Biotechnology, Korea), and the multi-drug resistant cell lines thereof, K562/ADR and MCF7/ADR (Bio-Evaluation Center, Korea Research Institute of Bioscience and Biotechnology, Korea) were cultured in microtiter plate (1-3×10^3 cells/well). Then, the cells were treated with ethyl(2-methyl-3{(E)-[(naphtho[2,1-b]furan-2-ylcarbonyl)hydrazono]methyl}-1H-indole-1-yl)acetate, doxorubicin, or taxol, followed by culture for 4 days. Cytotoxicity was investigated by MTT assay by the same manner as described in Example <1-2>. IC50 was calculated by long-dose response curve. The data presents the mean value obtained from the assay performed in triplicate (Table 3).

MCF7 = assay: Cytotoxicity MTT assay, MCF7; assay type: cell-based; conditions: Homo sapiens, 96 h, 4 days
Protocol: as §2

MCF7/ADR = assay: Cytotoxicity MTT assay, multi-drug resistant MCF7/ADR; assay type: cell-based
Protocol: as §2
The resistance factor of the multi-drug resistant cell line indicates the ratio of IC50 of the multi-drug resistant cell line to IC50 of the parent cell line showing no resistance, which was presented as a number in the bracket.

purified tubulin = assay: In vitro tubulin polymerization, degree of turbidity; assay type: biochemical; conditions: 5 μM, purified tubulin and GTP, 340 nm
Protocol: To measure the polymerization of tubulin in vitro, the buffer containing the purified tubulin and GTP was treated with ethyl(2-methyl-3{(E)-[(naphtho[2,1-b]furan-2-ylcarbonyl)hydrazono]methyl}-1H-indole-1-yl)acetate at the concentration of 5 μM. DMSO, and the equivalent Taxol and vinblastine were used as the controls. The polymerization of tubulin into microtubules was determined if the degree of turbidity was 340 nm.

[1] = test system: FVB/N mouse induced with skin tumor; assay: DMBA/TPA induced skin tumor model; assay type: in vivo
Protocol: In this invention, the male FVB/N mice (6-7 weeks, Jackson Laboratory, USA) were raised under the condition of 12 hr bright lighting/12 hr dim lighting at the temperature of 24±2° C. with the humidity of 50±10% with water and feed provided freely. The care and process of the test animal was reviewed and approved by Institutional Animal Care and Use Committee (IACUC), Korea Research Institute of Bioscience and Biotechnology (KRIBB). DMBA (7,12-dimethylbenz[α]anthracene), TPA (12-O-tetradecanoylphorbol-13-acetate) and cholchicine were purchased from Sigma-Aldrich, and the synthesized ethyl(2-methyl-3{(E)-[(naphtho[2,1-b]furan-2-ylcarbonyl)hydrazono]methyl}-1H-indole-1-yl)acetate was provided from Dr. Thimmegowda.
Particularly, the dorsal skin of the said FVB/N mouse was shaved two days before the experiment. 100 μg of DMBA was added to 0.2 ml of acetone, which was treated to the mouse by single-local administration for 1 week to induce tumor. 5 fig of TPA was added to 0.2 ml of acetone, which was treated to the above mouse induced with tumor […] for 15 weeks to grow the tumor. 500 nM of ethyl(2-methyl-3{(E)-[(naphtho[2,1-b]furan-2-ylcarbonyl)hydrazono]methyl}-1H-indole-1-yl)acetate or cholchicine was dissolved in 0.2 ml of acetone, which was treated to the above mouse locally for 30 minutes each time for 15 weeks. Each group was composed of at least 10 mice and total 4 groups were prepared:
Group 1: DMBA and acetone treated group (negative control)
Group 2: DMBA and TPA treated group (positive control)
Group 3: DMBA/TPA and cholchicine treated group (experimental group 1)
Group 4: DMBA/TPA and ethyl(2-methyl-3{(E)-[(naphtho[2,1-b]furan-2-ylcarbonyl)hydrazono]methyl}-1H-indole-1-yl)acetate treated group (experimental group 2).
In addition, skin tumor such as papilloma was checked every week during the whole period of experiment. The tumor in the size of at least 2 mm was judged as positive. 15 weeks later, the mice were sacrificed with CO2. The skin tumor was extracted for histopathological/biochemical analysis.
The average number and the volume of tumor in each group were calculated.
Each mouse group was treated with different materials by the same manner as described in Example <8-2>, followed by observation for 15 weeks, and then the number of mice having skin tumor was counted. Tumor development rate was presented as %.
The mouse induced with skin tumor by the same manner as described in Example <8-2> was treated with DMBA, and then the induced tumors were observed and weighed for 15 weeks to produce the average weight of tumor.

IC50 (Hep3B): 0.683 µM | IC50 (HepG2): 0.82 µM | IC50 (HCT116): 0.717 µM | IC50 (HT-29): 0.701 µM | IC50 (PC-3): 0.65 µM | IC50 (NCl-H460): 0.806 µM | IC50 (MDA-MB-231): 0.543 µM | IC50 (SNU-601): 0.773 µM | IC50 (HL60): 0.563 µM
Structure (SMILES): CCOC(=O)Cn1c(C)c(/C=N/NC(=O)c2cc3c(ccc4ccccc43)o2)c2ccccc21 [STK899704]
IC50 (A-172): 0.603 µM | IC50 (SNB-75): 0.588 µM | IC50 (K562): 0.45 µM | IC50 (MCF7): 1060 µM | IC50 (MCF7/ADR; Homo sapiens, NCI/ADR-RES, 96 h, MCF7/ADR, MTT, 4 days): 225 µM | resistance factor (number in the bracket) (MCF7/ADR; ratio of IC50 of MCF7/ADR to IC50 of parent MCF7): 0.2 | degree of turbidity (tubulin polymerization) compared with Taxol (purified tubulin): the degree of turbidity was lower | number of skin tumor ([1]; 500 nM in 0.2 ml acetone, local, 15 weeks): significantly reduced | weight of tumor compared with positive control ([1]; 15 weeks): significantly lighter | average volume of skin tumor reduced compared with positive control ([1]; 15 weeks, 500 nM local): 20.3% | decrease of average number of skin tumor compared with positive control ([1]; 15 weeks, 500 nM local): 4.75 times | average weight of tumor as fraction of positive control ([1]; 15 weeks, experimental group 2): 1/10 | week to which tumor formation was postponed ([1]; tumor of at least 2 mm, positive control from 8th week): 10 week
